Data reported in patent publication US9732104B2, “Ether compounds for treatment of complement mediated disorders” (Achillion Pharmaceuticals, Inc., priority 2014, dated 2017).

Target: Human factor D (Homo sapiens (Human), UniProt P00746)
Test: Human Factor D Assay
Type: biochemical
Conditions: Human factor D purified from human serum, 80 nM; substrate Z-L-Lys-SBzl with DTNB; assay of Example 8
Description: The assay of Example 8 was used to determine the IC50's of the compounds. Other standard factor D inhibition assays are also available.
Example 8. Human Factor D Assay
Human factor D (purified from human serum, Complement Technology, Inc.) at 80 nM final concentration is incubated with test compound at various concentrations for 5 minutes at room temperature in 50 mM Tris, 1M NaCl, pH 7.5. A synthetic substrate Z-L-Lys-SBzl and DTNB (Ellman's reagent) are added to final concentrations of 100 µM each. The increase in color is recorded at OD405 nm in a microplate in kinetic mode over 30 minutes with 30 second time points in a […]. IC50 values are calculated by non-linear regression from the percentage of inhibition of complement factor D activity as a function of test compound concentration.

Chain of Human factor D (P00746 26-253): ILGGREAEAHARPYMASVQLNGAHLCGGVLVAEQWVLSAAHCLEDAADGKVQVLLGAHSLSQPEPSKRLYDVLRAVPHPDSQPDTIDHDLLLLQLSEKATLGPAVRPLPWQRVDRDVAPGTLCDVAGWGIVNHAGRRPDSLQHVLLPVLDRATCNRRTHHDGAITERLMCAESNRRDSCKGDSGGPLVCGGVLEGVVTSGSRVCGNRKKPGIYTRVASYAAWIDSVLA

SMILES	IC50
CC(=O)c1cn(CC(=O)N2C[C@H](F)C[C@H]2C(=O)Nc2ccc(OC(F)(F)F)c(F)c2)c2cc(OCP(=O)(O)O)ccc12 [Compound 25, (3-acetyl-1-(2-((2S,4R)-4-fluoro-2-(3-fluoro-4-(trifluoromethoxy)phen-ylcarbamoyl)pyrrolidin-1-yl)-2-oxoethyl)-1H-indol-6-yloxy)methylphosphonic acid]	< 1000 nM
CC(=O)c1cn(CC(=O)N2C[C@H](F)C[C@H]2C(=O)Nc2cccc(Oc3ccccc3)c2)c2cc(OCP(=O)(O)O)ccc12 [Compound 26, (3-acetyl-1-(2-((2S,4R)-4-fluoro-2-(3-phenoxy-phenylcarbamoyl)pyrrolidin-1-yl)-2-oxoethyl)-1H-indol-6-yloxy)methylphosphonic acid]	< 1000 nM
CC(=O)c1cn(CC(=O)N2C[C@H](F)C[C@H]2C(=O)Nc2cccc(OC(F)(F)F)c2F)c2cc(OCP(=O)(O)O)ccc12 [Compound 27, (3-acetyl-1-(2-((2S,4R)-4-fluoro-2-(2-fluoro-3-(trifluoromethoxy)phenyl-carbamoyl)pyrrolidin-1-yl)-2-oxoethyl)-1H-indol-6-yloxy)methylphosphonic acid]	< 1000 nM
CC(C)(C)NS(=O)(=O)COc1ccc2c(C(N)=O)nn(CC(=O)N3C[C@H](F)C[C@H]3C(=O)Nc3cccc(-c4ccccc4Cl)c3F)c2c1 [Compound 28, 6-(N-tert-butylsulfamoylmethoxy)-1-(2-((2S,4R)-2-(2′-chloro-2-fluorobiphenyl-3-ylcarbamoyl)-4-fluoropyrrolidin-1-yl)-2-oxoethyl)-1H-indazole-3-carboxamide]	< 1000 nM
NC(=O)c1nn(CC(=O)N2C[C@H](F)C[C@H]2C(=O)Nc2cccc(-c3ccccc3Cl)c2F)c2cc(OCS(N)(=O)=O)ccc12 [Compound 29, 1-(2-((2S,4R)-2-(2′-chloro-2-fluorobiphenyl-3-ylcarbamoyl)-4-fluoropyrrolidin-1-yl)-2-oxoethyl)-6-(sulfamoylmethoxy)-1H-indazole-3-carboxamide]	< 1000 nM
CC(=O)c1cn(CC(=O)N2C[C@H](F)C[C@H]2C(=O)NCc2cccc(Cl)c2F)c2cc(Oc3ncccn3)ccc12 [Compound 30, (2S,4R)-1-(2-(3-acetyl-6-(pyrimidin-2-yloxy)-1H-indol-1-yl)acetyl)-N-(3-chloro-2-fluorobenzyl)-4-fluoropyrrolidine-2-carboxamide]	< 1000 nM
NC(=O)c1nn(CC(=O)N2C[C@H](F)C[C@H]2C(=O)Nc2cccc(-c3ccccc3Cl)c2F)c2ccc(Oc3cncnc3)cc12 [Compound 31, 1-(2-((2S,4R)-2-(2′-chloro-2-fluorobiphenyl-3-ylcarbamoyl)-4-fluoropyrrolidin-1-yl)-2-oxoethyl)-5-(pyrimidin-5-yloxy)-1H-indazole-3-carboxamide]	< 1000 nM
CC(=O)c1cn(CC(=O)N2C[C@H](F)C[C@H]2C(=O)Nc2cccc(-c3ccccc3Cl)c2F)c2cc(Oc3ncccn3)ccc12 [Compound 32, (2S,4R)-1-(2-(3-acetyl-6-(pyrimidin-2-yloxy)-1H-indol-1-yl)acetyl)-N-(2′-chloro-2-fluorobiphenyl-3-yl)-4-fluoropyrrolidine-2-carboxamide]	< 1000 nM
CC(=O)c1cn(CC(=O)N2C[C@H](F)C[C@H]2C(=O)Nc2cccc(-c3ccccc3Cl)c2F)c2ccc(Oc3ncc(Br)cn3)cc12 [Compound 33, (2S,4R)-1-(2-(3-acetyl-5-(5-bromopyrimidin-2-yloxy)-1H-indol-1-yl)acetyl)-N-(2′-chloro-2-fluorobiphenyl-3-yl)-4-fluoropyrrolidine-2-carboxamide]	< 1000 nM
CC(=O)c1cn(CC(=O)N2C[C@H](F)C[C@H]2C(=O)Nc2cccc(-c3ccccc3Cl)c2F)c2ccc(Oc3cnc(C#N)nc3)cc12 [Compound 36, (2S,4R)-1-(2-(3-acetyl-5-(2-cyanopyrimidin-5-yloxy)-1H-indol-1-yl)acetyl)-N-(2′-chloro-2-fluorobiphenyl-3-yl)-4-fluoropyrrolidine-2-carboxamide]	< 1000 nM
CC(=O)c1cn(CC(=O)N2C[C@H](F)C[C@H]2C(=O)Nc2cccc(-c3ccccc3Cl)c2F)c2ccc(Oc3ncc(F)cn3)cc12 [Compound 37, (2S,4R)-1-(2-(3-acetyl-5-(5-fluoropyrimidin-2-yloxy)-1H-indol-1-yl)acetyl)-N-(2′-chloro-2-fluorobiphenyl-3-yl)-4-fluoropyrrolidine-2-carboxamide]	< 1000 nM
CC(=O)c1cn(CC(=O)N2C[C@H](F)C[C@H]2C(=O)Nc2cccc(-c3ccccc3Cl)c2F)c2ccc(Oc3ncccn3)cc12 [Compound 38, (2S,4R)-1-(2-(3-acetyl-5-(pyrimidin-2-yloxy)-1H-indol-1-yl)acetyl)-N-(2′-chloro-2-fluorobiphenyl-3-yl)-4-fluoropyrrolidine-2-carboxamide]	< 1000 nM
CC(=O)c1cn(CC(=O)N2C[C@H](F)C[C@H]2C(=O)Nc2cccc(Br)n2)c2ccc(Oc3ncccn3)cc12 [Compound 39, (2S,4R)-1-(2-(3-acetyl-5-(pyrimidin-2-yloxy)-1H-indol-1-yl)acetyl)-N-(6-bromopyridin-2-yl)-4-fluoropyrrolidine-2-carboxamide]	< 1000 nM
CC(=O)c1cn(CC(=O)N2C[C@H](F)C[C@H]2C(=O)Nc2cccc(-c3ccccc3Cl)c2F)c2ccc(Oc3ncc(C)cn3)cc12 [Compound 40, (2S,4R)-1-(2-(3-acetyl-5-(5-methylpyrimidin-2-yloxy)-1H-indol-1-yl)acetyl)-N-(2′-chloro-2-fluorobiphenyl-3-yl)-4-fluoropyrrolidine-2-carboxamide]	< 1000 nM
CC(=O)c1cn(CC(=O)N2C[C@H](F)C[C@H]2C(=O)Nc2cccc(Br)n2)c2ccc(Oc3ncc(C)cn3)cc12 [Compound 41, (2S,4R)-1-(2-(3-acetyl-5-(5-methylpyrimidin-2-yloxy)-1H-indol-1-yl)acetyl)-N-(6-bromopyridin-2-yl)-4-fluoropyrrolidine-2-carboxamide]	< 1000 nM
CC(=O)c1cn(CC(=O)N2C[C@H](F)C[C@H]2C(=O)Nc2cccc(-c3ccccc3Cl)c2F)c2ccc(Oc3ncc(C(F)(F)F)cn3)cc12 [Compound 42, (2S,4R)-1-(2-(3-acetyl-5-(5-(trifluoromethyl)pyrimidin-2-yloxy)-1H-indol-1-yl)acetyl)-N-(2′-chloro-2-fluorobiphenyl-3-yl)-4-fluoropyrrolidine-2-carboxamide]	< 1000 nM
CC(=O)c1cn(CC(=O)N2C[C@H](F)C[C@H]2C(=O)Nc2cccc(-c3ccccc3Cl)c2F)c2ccc(Oc3cnc(Cl)nc3)cc12 [Compound 43, (2S,4R)-1-(2-(3-acetyl-5-(2-chloropyrimidin-5-yloxy)-1H-indol-1-yl)acetyl)-N-(2′-chloro-2-fluorobiphenyl-3-yl)-4-fluoropyrrolidine-2-carboxamide]	< 1000 nM
